Data published in ChEMBL document CHEMBL1201862, “PubChem BioAssay data set” (2004).
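Exposure lasted 48 hours, with cells grown in 96-well plates and compounds tested at five concentrations. GI50: concentration for 50% inhibition of growth.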 Activity calls are given as the source filed them. Rule as the data show it: active = GI50 up to about 1.1 µM and inactive = higher.

Key:
Test in all cases: NCI anticancer screen, dose series, 48 h
[1] = test system: 786-0
[2] = test system: A498
[3] = test system: A549
[4] = test system: ACHN
[5] = test system: BT-549
[6] = test system: CAKI-1
[7] = test system: CCRF-CEM
[8] = test system: COLO 205
[9] = test system: DU-145
[10] = test system: EKVX
[11] = test system: HCC 2998
[12] = test system: HCT-116
[13] = test system: HCT-15
[14] = test system: HL-60
[15] = test system: HOP-62
[16] = test system: HOP-92
[17] = test system: HT-29
[18] = test system: Hs-578T
[19] = test system: IGROV-1
[20] = test system: K562
[21] = test system: KM12
[22] = test system: LOX IMVI
[23] = test system: M14
[24] = test system: MCF7
[25] = test system: MDA-MB-435
[26] = test system: MDA-N
[27] = test system: MOLT-4
[28] = test system: Malme-3M
[29] = test system: NCI-H226
[30] = test system: NCI-H23
[31] = test system: NCI-H460
[32] = test system: NCI-H522
[33] = test system: NCI/ADR-RES
[34] = test system: OVCAR-3
[35] = test system: OVCAR-4
[36] = test system: OVCAR-5
[37] = test system: OVCAR-8
[38] = test system: PC-3
[39] = test system: RPMI-8226
[40] = test system: RXF 393
[41] = test system: SF-268
[42] = test system: SF-295
[43] = test system: SF-539
[44] = test system: SK-MEL-28
[45] = test system: SK-MEL-2
[46] = test system: SK-MEL-5
[47] = test system: SK-OV-3
[48] = test system: SN12C
[49] = test system: SNB-19
[50] = test system: SNB-75
[51] = test system: SR
[52] = test system: SW-620
[53] = test system: T47D
[54] = test system: TK-10
[55] = test system: U-251
[56] = test system: UACC-257
[57] = test system: UACC-62
[58] = test system: UO-31
[59] = test system: MDA-MB-231

NC(=S)N1N=C(c2ccc3c(c2)CCC3)CC1c1ccccc1 (stereo not drawn)
GI50 [1]: 22.6 µM (inactive)
GI50 [2]: 12.5 µM (inactive)
GI50 [3]: 23.4 µM (inactive)
GI50 [4]: 27.9 µM (inactive)
GI50 [5]: 22.5 µM (inactive)
GI50 [6]: 21.3 µM (inactive)
GI50 [7]: 23.1 µM (inactive)
GI50 [8]: 18.3 µM (inactive)
GI50 [9]: 23 µM (inactive)
GI50 [10]: 5.08 µM (inactive)
GI50 [11]: 16.1 µM (inactive)
GI50 [12]: 22 µM (inactive)
GI50 [13]: 13.8 µM
GI50 [14]: 7.93 µM (inactive)
GI50 [15]: 24.9 µM (inactive)
GI50 [16]: 23.4 µM (inactive)
GI50 [17]: 16.4 µM (inactive)
GI50 [18]: 6.12 µM (inactive)
GI50 [19]: 15 µM (inactive)
GI50 [20]: 13.1 µM (inactive)
GI50 [21]: 11.4 µM (inactive)
GI50 [22]: 31.5 µM (inactive)
GI50 [23]: 26.7 µM (inactive)
GI50 [24]: 8.45 µM (inactive)
GI50 [25]: 20.2 µM (inactive)
GI50 [26]: 22.9 µM (inactive)
GI50 [27]: 8.15 µM (inactive)
GI50 [28]: 22.6 µM (inactive)
GI50 [29]: 34.2 µM (inactive)
GI50 [30]: 25.1 µM (inactive)
GI50 [31]: 22.2 µM (inactive)
GI50 [32]: 6.27 µM (inactive)
GI50 [33]: 15.6 µM (inactive)
GI50 [34]: 17.4 µM (inactive)
GI50 [35]: 7.18 µM (inactive)
GI50 [36]: 32.2 µM (inactive)
GI50 [37]: 28.3 µM (inactive)
GI50 [38]: 19.6 µM (inactive)
GI50 [39]: 13.6 µM (inactive)
GI50 [40]: 2.88 µM (inactive)
GI50 [41]: 30.8 µM (inactive)
GI50 [42]: 15.7 µM (inactive)
GI50 [43]: 18.3 µM (inactive)
GI50 [44]: 41.5 µM (inactive)
GI50 [45]: 13.7 µM (inactive)
GI50 [46]: 12.8 µM (inactive)
GI50 [47]: 28.6 µM (inactive)
GI50 [48]: 24.7 µM (inactive)
GI50 [49]: 34.6 µM (inactive)
GI50 [50]: 18.1 µM (inactive)
GI50 [51]: 25.3 µM (inactive)
GI50 [52]: 33.8 µM (inactive)
GI50 [53]: 1.64 µM (inactive)
GI50 [54]: 18.1 µM (inactive)
GI50 [55]: 20.4 µM (inactive)
GI50 [56]: 21.4 µM (inactive)
GI50 [57]: 17.6 µM (inactive)
GI50 [58]: 29.9 µM (inactive)

CC1C2CC(CC2(C)O)C1(C)C (stereo not drawn)
GI50 [1]: > 100 µM (inactive)
GI50 [2]: > 100 µM (inactive)
GI50 [3]: > 100 µM (inactive)
GI50 [4]: > 100 µM (inactive)
GI50 [5]: > 100 µM (inactive)
GI50 [6]: > 100 µM (inactive)
GI50 [7]: > 100 µM (inactive)
GI50 [8]: > 100 µM (inactive)
GI50 [9]: > 100 µM (inactive)
GI50 [10]: > 100 µM (inactive)
GI50 [11]: > 100 µM (inactive)
GI50 [12]: > 100 µM (inactive)
GI50 [14]: > 100 µM (inactive)
GI50 [15]: > 100 µM (inactive)
GI50 [16]: > 100 µM (inactive)
GI50 [17]: > 100 µM (inactive)
GI50 [18]: > 100 µM (inactive)
GI50 [19]: > 100 µM (inactive)
GI50 [20]: > 100 µM (inactive)
GI50 [21]: > 100 µM (inactive)
GI50 [23]: > 100 µM (inactive)
GI50 [24]: > 100 µM (inactive)
GI50 [59]: > 100 µM (inactive)
GI50 [25]: > 10 µM (inactive)
GI50 [26]: > 100 µM (inactive)
GI50 [27]: > 100 µM (inactive)
GI50 [28]: > 100 µM (inactive)
GI50 [29]: > 100 µM (inactive)
GI50 [30]: > 100 µM (inactive)
GI50 [31]: > 100 µM (inactive)
GI50 [32]: > 100 µM (inactive)
GI50 [34]: > 100 µM (inactive)
GI50 [35]: > 100 µM (inactive)
GI50 [36]: > 100 µM (inactive)
GI50 [37]: > 100 µM (inactive)
GI50 [38]: > 100 µM (inactive)
GI50 [40]: > 100 µM (inactive)
GI50 [41]: > 100 µM (inactive)
GI50 [42]: > 100 µM (inactive)
GI50 [43]: > 100 µM (inactive)
GI50 [44]: > 100 µM (inactive)
GI50 [46]: > 100 µM (inactive)
GI50 [47]: > 100 µM (inactive)
GI50 [48]: > 100 µM (inactive)
GI50 [49]: > 100 µM (inactive)
GI50 [50]: > 100 µM (inactive)
GI50 [51]: > 100 µM (inactive)
GI50 [52]: > 100 µM (inactive)
GI50 [53]: > 100 µM (inactive)
GI50 [54]: > 100 µM (inactive)
GI50 [55]: > 100 µM (inactive)
GI50 [56]: > 100 µM (inactive)
GI50 [57]: > 100 µM (inactive)
GI50 [58]: > 100 µM (inactive)

Cc1cc(S(=O)(=O)Nc2nc(N)nc(N3N=CCC3C)n2)c(S)cc1Cl (stereo not drawn)
GI50 [1]: > 10 µM (inactive)
GI50 [2]: > 10 µM (inactive)
GI50 [3]: > 10 µM (inactive)
GI50 [4]: > 10 µM (inactive)
GI50 [5]: > 10 µM (inactive)
GI50 [6]: > 10 µM (inactive)
GI50 [7]: > 10 µM (inactive)
GI50 [8]: > 10 µM (inactive)
GI50 [9]: > 10 µM (inactive)
GI50 [10]: > 10 µM (inactive)
GI50 [11]: > 10 µM (inactive)
GI50 [12]: > 10 µM (inactive)
GI50 [13]: > 10 µM
GI50 [14]: > 10 µM (inactive)
GI50 [15]: > 10 µM (inactive)
GI50 [16]: > 10 µM (inactive)
GI50 [17]: > 10 µM (inactive)
GI50 [18]: > 10 µM (inactive)
GI50 [19]: > 10 µM (inactive)
GI50 [20]: > 10 µM (inactive)
GI50 [21]: > 10 µM (inactive)
GI50 [22]: > 10 µM (inactive)
GI50 [23]: > 10 µM (inactive)
GI50 [24]: > 10 µM (inactive)
GI50 [26]: > 10 µM (inactive)
GI50 [27]: > 10 µM (inactive)
GI50 [28]: > 10 µM (inactive)
GI50 [29]: > 10 µM (inactive)
GI50 [30]: > 10 µM (inactive)
GI50 [31]: > 10 µM (inactive)
GI50 [32]: > 10 µM (inactive)
GI50 [33]: > 10 µM (inactive)
GI50 [34]: > 10 µM (inactive)
GI50 [35]: > 10 µM (inactive)
GI50 [36]: > 10 µM (inactive)
GI50 [37]: > 10 µM (inactive)
GI50 [38]: > 10 µM (inactive)
GI50 [39]: > 10 µM (inactive)
GI50 [40]: > 10 µM (inactive)
GI50 [41]: > 10 µM (inactive)
GI50 [42]: > 10 µM (inactive)
GI50 [43]: > 10 µM (inactive)
GI50 [44]: > 10 µM (inactive)
GI50 [45]: > 10 µM (inactive)
GI50 [46]: > 10 µM (inactive)
GI50 [47]: > 10 µM (inactive)
GI50 [48]: > 10 µM (inactive)
GI50 [49]: > 10 µM (inactive)
GI50 [50]: > 10 µM (inactive)
GI50 [51]: > 10 µM (inactive)
GI50 [52]: > 10 µM (inactive)
GI50 [53]: > 10 µM (inactive)
GI50 [54]: > 10 µM (inactive)
GI50 [55]: > 10 µM (inactive)
GI50 [56]: > 10 µM (inactive)
GI50 [58]: > 10 µM (inactive)
